Data as given in patent US20060052357A1, “Organometallic anti-tumour agent” (priority 2001, published 2006).

How the values were obtained:
P388/ph = test: Drug-resistant leukemia P388/ph (rubomycin-resistant) survival; type: in vivo, mice; settings: 5 mg/kg, days 1-7
From the text: (§1) The therapeutic efficacy was investigated on the leukemia tumor strains L-1210, P-388, and P-388 strains specifically obtained for drug resistance. The lifespan of the animals was set at 60 days in this case. Drug-resistant tumor were obtained by successive transplantation of the leukemia P-388 with ascites cells taken from mice which had been treated with rubomycin (strain P388/ph), vincristine (P388/vcr) and zisplatin (P388/cPt).
(§2) Resistance to the products mentioned appear in the 8th, 6th and 4th generation.
(§3) The products were administered intraabdominally. Cu(acac)2M was dissolved in 10% Twin 80.

S-180 sarcoma tumor = test: S-180 sarcoma in white crossbred mice (Example 7); type: in vivo; settings: day 21
Experimental: After transplantation of the S-180 sarcoma tumor into white crossbred mice, the animals received the substance MOC.melphalan by intraabdominal administration in a dosage of 1 mg/kg in 0.3 ml of 10% DMSO solution on days 3, 5 and 9. The animals were sacrificed on day 21 of the investigation and underwent histological, morphological examination (table 11).
After transplantation of the S-180 sarcoma tumor into white crossbred mice, the animals received MOC.melphalan and melphalan by intraabdominal administration in a dosage of 5 mg/kg in 0.3 ml of 10% DMSO solution on days 3, 5, 7 and 9. The animals were sacrificed on day 21 of the investigation and underwent histological, morphological examination (table 12).
After transplantation of the S-180 sarcoma tumor into white crossbred mice, the animals received MOC.melphalan and melphalan by intraabdominal administration in a dosage of 5 mg/kg in 0.3 ml of 10% DMSO solution on days 2, 4, 6, 8 and 10. The animals were sacrificed on day 21 of the investigation and underwent histological, morphological examination (table 13).

leukemia P-388 [1] = test: Leukemia P-388 survival (original strain); type: in vivo, mice
[2] = tested on: drug-resistant leukemia P-388 tumors; settings: rubomycin-, vincristine-, cisplatin-resistant P-388
From the text: The drug-resistant tumors were obtained by administration of ascites cells leukemia P-388 which were derived from mice treated with rubomycin, vincristine and cisplatin.

leukemia P-388 [3] = test: Leukemia P-388 survival (original strain); type: in vivo, mice; remark: listed apart in the source
Experimental: as §1
Inoculum: 10^6 cells in 0.2 ml of physiological saline solution. Mice: BDF1. Females 19-21 g
After transplantation of the tumor, the substance MOC.melphalan was administered intraabdominally to the animals in a dosage of 5 mg/kg in 0.3 ml of 10% Twin-80 solution on days 1 to 7. The effect of the substance was assessed on the basis of the lifespan and the weight change of the animals (table 7).
as §3

adenocarcinoma = test: Adenocarcinoma in Balb mice, intraabdominal administration; type: in vivo
Experimental: 1) 10 mice of the Balb line, each of which contained an adenocarcinoma, received intraabdominal administration of Cu(acac)2M in a dose of 5 mg/kg in 0.3 ml of physiological saline solution. As control, 10 further mice of the same type with the same tumor were determined without treatment. An average tumor weight of 3.60 g was found in the control mice, while the average tumor weight in the treated mice was 0.3 g. The results for the mice treated according to the invention are indicated, with weight and size of the tumor, in table 1 below.
The average weight of the tumor was 3.60 g.

B-16 melanoma tumor = test: B-16 melanoma tumor, MOC.melphalan and MOC.tegafur (Example 13); type: in vivo, mice; settings: Dose 5 mg/kg (table), day 16
Experimental: MOC.tegafur was administered in a physiological solution. The animals in the control group likewise received administration of the solutions (without products). On day 16, the mice were sacrificed by decapitation, tumor tissue was removed for histological examination, and the tumor was investigated for antitumor activity (table 23). The tumors were fixed with 10% formalin, which was followed by embedding in paraffin. The section thickness of 5 μm were stained with hematoxylin-eosinome. The microscopy was carried out with a Leica Galen microscope.

[4] = Solubility and stability in air
[5] = tested on: tumor cell cultures (KML); test: Suppression of cell proliferation in tumor cell cultures (KML); type: cell-based, mice; settings: incubation 24 hours
Experimental: The effect of the substances MOC.melphalan and MOC.tegafur of the invention on the proliferative activity, morphology and protein synthesis was investigated on tumor cell cultures (KML). This took place with the mice separated out of the melanoma-16 line. 80 000 cells/ml were distributed in 3 ml of DMEM with the addition of embryonic calf serum, 200 μ/mol of glutamine and antibiotic. After cultivation of the cells at a temperature of 37° C. for 24 hours (logarithmic cell growth phase), the MOC substances were added in the concentration of 10 and 100 μg/ml. After incubation for 24 hours, the number of live cells was determined. In parallel, the fixed specimens of the cells were prepared for morphological analysis.

[6] = tested on: S-180 sarcoma tumor cells; test: DNA concentration in S-180 sarcoma tumor cells after incubation; type: cell-based, mice; settings: 0.05 mg/10^6 cells; for DNA concentration: 37° C., control 106; for DNA concentration/control: control 100
Experimental: S-180 sarcoma tumor cells (20·10^6 cells/investigation) were incubated with the substance MOC.melphalan in a concentration of 0.05 mg/10^6 cells at a temperature of 37° C. for 40 or 60 min (see table 16).
The DNA concentration was determined using the phenol-chloroform method of MANIATIS (Maniatis, Frin, Sämbruck Methods of genetic engineering, Molecular Cloning, M.: MIR, 1984, pages 479 et seq.). Separation of DNA and RNA was followed by a phoresis in a 2.5% agarose gel (see table 16, FIG. 7).

P388/cPt = test: Drug-resistant leukemia P388/cPt (cisplatin-resistant) survival; type: in vivo, mice; settings: 5 mg/kg, days 1-7
From the text: as §1, §2, §3

[7] = 5 mg/kg intraabdominal days 1-7

## CC(=O)C=C(C)[O-].CC(=O)C=C(C)[O-].NC(Cc1ccc(N(CCCl)CCCl)cc1)C(=O)O.[Cu+2] (centres unmarked) [MOC.melphalan, (C5H7O2)2—Cu—C13H18Cl2N2O2]
P388/ph
  ILS %: 189%
  Number of surviving animals/number of animals in group: 2/6
S-180 sarcoma tumor; 1 mg/kg intraabdominal days 3, 5, 9
  Percentage inhibition: 100%
S-180 sarcoma tumor; 5 mg/kg intraabdominal days 2, 4, 6, 8, 10
  Percentage inhibition: 49%
S-180 sarcoma tumor; 5 mg/kg intraabdominal days 2, 4, 6, 8, 10, control 3.9 ± 0.5
  Average tumor mass: 2.0 ± 0.7 g
S-180 sarcoma tumor; 5 mg/kg intraabdominal days 3, 5, 7, 9
  Percentage inhibition: 100%
Leukemia P-388 [1]; 10 mg/kg, days 1, 5, 9
  ILS %: 419%
  Number of surviving animals/number of animals in group: 5/6
Leukemia P-388 [1]; 10 mg/kg, days 1, 7
  ILS %: 465%
  Number of surviving animals/number of animals in group: 4/6
Leukemia P-388 [1]; 15 mg/kg, days 1, 7
  ILS %: 447%
  Number of surviving animals/number of animals in group: 5/6
[2]
  sensitivity of the resistant tumors reduced: 4-5 fold
Leukemia P-388 [3]; [7]
  Change in weight: -2.5 g
  Increase in average lifespan: 56.0%
Leukemia P-388 [3]; 5 mg/kg intraabdominal days 1-7, 6 animals
  Number of animals which survived to day 60: 0
Leukemia P-388 [3]; 5 mg/kg intraabdominal days 1-7, control 10.8
  Average lifespan: 16.8 days
Leukemia P-388 [3]; 5 mg/kg, days 1-7
  ILS %: 56%
adenocarcinoma; Balb mice, 5 mg/kg intraabdominal, compared with control series
  inhibition of the tumor: 91.9%
adenocarcinoma; Balb mice, 5 mg/kg intraabdominal, control 3.60 g
  average tumor weight: 0.3 g
adenocarcinoma; individual treated mice 1-10, 5 mg/kg intraabdominal, listed as Cu(acac)2M
  Size of the tumor: 0 cm
B-16 melanoma tumor; control 4.22
  MI (mitosis index): 0.64
B-16 melanoma tumor; intraabdominal days 3, 5, 9
  Percent inhibition: 77.71%
B-16 melanoma tumor; intraabdominal days 3, 5, 9, control 3.22
  Tumor weight: 0.74 g
[4]
  solubility in water: poor solubility
[5]; 10 μg/ml
  Suppression of growth cells: 30%
[5]; 100 μg/ml
  Suppression of growth cells: 95%
[6]; incubation 40 min
  DNA concentration: 530 μg/g of cells
  DNA concentration/control: 498
[6]; incubation 60 min
  DNA concentration: 53 μg/g of cells
  DNA concentration/control: 50
P388/cPt
  ILS %: 193%
